Key:
PCTK1 = target: T1, PCTK1 (Homo sapiens, UniProt Q00536); assay: KINOMEscan at 1 μM, PCTK1; assay type: binding; conditions: 1000 nM, read-out: Percent Control
T1 construct: purchased Eurofins DiscoverX KINOMEscan
Source text: (§1) Supplement cells-12-00287-s001.zip/File S2. KinomeScan data for the CAMKK2 probe and negative control.xlsx, sheet "SGC-CAMKK2-1N" | column: Percent Control

CDC2L2 = target: T2, CDC2L2 (Homo sapiens, UniProt Q9UQ88); assay: KINOMEscan at 1 μM, CDC2L2; assay type: binding; conditions: 1000 nM, read-out: Percent Control
T2 construct: purchased Eurofins DiscoverX KINOMEscan
Source text: as §1

MAPKAPK5 = target: T3, MAPKAPK5 (Homo sapiens, UniProt Q8IW41); assay: KINOMEscan binding assay at 1 μM, MAPKAPK5; conditions: Compound Concentration 1000 nM; read-out: Percent Control
T3 construct: purchased Eurofins DiscoverX KINOMEscan
Source text: as §1

EPHA7 = target: T4, EPHA7 (Homo sapiens, UniProt Q15375); assay: KINOMEscan binding assay at 1 μM, EPHA7; conditions: Compound Concentration 1000 nM; read-out: Percent Control
T4 construct: purchased Eurofins DiscoverX KINOMEscan
Source text: as §1

MAP4K5 = target: T5, MAP4K5 (Homo sapiens, UniProt Q9Y4K4); assay: KINOMEscan at 1 μM, MAP4K5; assay type: binding; conditions: 1000 nM, read-out: Percent Control
T5 construct: purchased Eurofins DiscoverX KINOMEscan
Source text: as §1

MAST1 = target: T6, MAST1 (Homo sapiens, UniProt Q9Y2H9); assay: KINOMEscan binding assay at 1 μM, MAST1; conditions: Compound Concentration 1000 nM; read-out: Percent Control
T6 construct: purchased Eurofins DiscoverX KINOMEscan
Source text: as §1

EGFR(L747-T751del,Sins) = assay: KINOMEscan binding assay at 1 μM, EGFR(L747-T751del,Sins); design: species or system human; conditions: Compound Concentration 1000 nM
Source text: as §1

TBK1 = target: T7, TBK1 (Homo sapiens, UniProt Q9UHD2); assay: KINOMEscan at 1 μM, TBK1; assay type: binding; conditions: 1000 nM, read-out: Percent Control
T7 construct: purchased Eurofins DiscoverX KINOMEscan
Source text: as §1

[1] = target: T8, RSK2(Kin.Dom.1-N-terminal) (Homo sapiens, UniProt P51812); assay: KINOMEscan at 1 μM, RSK2(Kin.Dom.1-N-terminal); assay type: binding; conditions: 1000 nM, read-out: Percent Control
T8 construct: RSK2(Kin.Dom.1-N-terminal); purchased Eurofins DiscoverX KINOMEscan
Source text: as §1

IRAK3 = target: T9, IRAK3 (Homo sapiens, UniProt Q9Y616); assay: KINOMEscan at 1 μM, IRAK3; assay type: binding; conditions: 1000 nM, read-out: Percent Control
T9 construct: purchased Eurofins DiscoverX KINOMEscan
Source text: as §1

TYRO3 = target: T10, TYRO3 (Homo sapiens, UniProt Q06418); assay: KINOMEscan binding assay at 1 μM, TYRO3; conditions: Compound Concentration 1000 nM; read-out: Percent Control
T10 construct: purchased Eurofins DiscoverX KINOMEscan
Source text: as §1

KIT(V559D,V654A) = target: T11, KIT(V559D,V654A) (Homo sapiens, UniProt P10721, V559D/V654A); assay: KINOMEscan at 1 μM, KIT(V559D,V654A); assay type: binding; conditions: 1000 nM, read-out: Percent Control
T11 construct: purchased Eurofins DiscoverX KINOMEscan
Source text: as §1

PDPK1 = target: T12, PDPK1 (Homo sapiens, UniProt O15530); assay: KINOMEscan binding assay at 1 μM, PDPK1; conditions: Compound Concentration 1000 nM; read-out: Percent Control
T12 construct: purchased Eurofins DiscoverX KINOMEscan
Source text: as §1

BTK = target: T13, BTK (Homo sapiens, UniProt Q06187); assay: KINOMEscan at 1 μM, BTK; assay type: binding; conditions: 1000 nM, read-out: Percent Control
T13 construct: purchased Eurofins DiscoverX KINOMEscan
Source text: as §1

SGK = target: T14, SGK (Homo sapiens, UniProt O00141); assay: KINOMEscan at 1 μM, SGK; assay type: binding; conditions: 1000 nM, read-out: Percent Control
T14 construct: purchased Eurofins DiscoverX KINOMEscan
Source text: as §1

LATS2 = target: T15, LATS2 (Homo sapiens, UniProt Q9NRM7); assay: KINOMEscan at 1 μM, LATS2; assay type: binding; conditions: 1000 nM, read-out: Percent Control
T15 construct: purchased Eurofins DiscoverX KINOMEscan
Source text: as §1

YANK3 = target: T16, YANK3 (Homo sapiens, UniProt Q86UX6); assay: KINOMEscan at 1 μM, YANK3; assay type: binding; conditions: 1000 nM, read-out: Percent Control
T16 construct: purchased Eurofins DiscoverX KINOMEscan
Source text: as §1

DAPK2 = target: T17, DAPK2 (Homo sapiens, UniProt Q9UIK4); assay: KINOMEscan at 1 μM, DAPK2; assay type: binding; conditions: 1000 nM, read-out: Percent Control
T17 construct: purchased Eurofins DiscoverX KINOMEscan
Source text: as §1

ERBB3 = target: T18, ERBB3 (Homo sapiens, UniProt P21860); assay: KINOMEscan at 1 μM, ERBB3; assay type: binding; conditions: 1000 nM, read-out: Percent Control
T18 construct: purchased Eurofins DiscoverX KINOMEscan
Source text: as §1

ERBB4 = target: T19, ERBB4 (Homo sapiens, UniProt Q15303); assay: KINOMEscan at 1 μM, ERBB4; assay type: binding; conditions: 1000 nM, read-out: Percent Control
T19 construct: purchased Eurofins DiscoverX KINOMEscan
Source text: as §1

MAP3K2 = target: T20, MAP3K2 (Homo sapiens, UniProt Q9Y2U5); assay: KINOMEscan at 1 μM, MAP3K2; assay type: binding; conditions: 1000 nM, read-out: Percent Control
T20 construct: purchased Eurofins DiscoverX KINOMEscan
Source text: as §1

CAMK1G = target: T21, CAMK1G (Homo sapiens, UniProt Q96NX5); assay: KINOMEscan at 1 μM, CAMK1G; assay type: binding; conditions: 1000 nM, read-out: Percent Control
T21 construct: purchased Eurofins DiscoverX KINOMEscan
Source text: as §1

MST4 = target: T22, MST4 (Homo sapiens, UniProt Q9P289); assay: KINOMEscan 1 μM, MST4; assay type: binding; conditions: 1000 nM; Entrez MST4; read-out: Percent Control
T22 construct: purchased Eurofins DiscoverX KINOMEscan
Source text: (§2) Supplement cells-12-00287-s001.zip/File S2. KinomeScan data for the CAMKK2 probe and negative control.xlsx, sheet "SGC-CAMKK2-1" | column: Percent Control

AAK1 = target: T23, AAK1 (Homo sapiens, UniProt Q2M2I8); assay: KINOMEscan 1 μM, AAK1; assay type: binding; conditions: 1000 nM; Entrez AAK1; read-out: Percent Control
T23 construct: purchased Eurofins DiscoverX KINOMEscan
Source text: as §2

GRK3 = target: T24, GRK3 (Homo sapiens, UniProt P35626); assay: KINOMEscan 1 μM, GRK3; assay type: binding; conditions: 1000 nM; Entrez ADRBK2; read-out: Percent Control
T24 construct: purchased Eurofins DiscoverX KINOMEscan
Source text: as §2

CLK3 = target: T25, CLK3 (Homo sapiens, UniProt P49761); assay: KINOMEscan 1 μM, CLK3; assay type: binding; conditions: 1000 nM; Entrez CLK3; read-out: Percent Control
T25 construct: purchased Eurofins DiscoverX KINOMEscan
Source text: as §2

PIP5K1C = target: T26, PIP5K1C (Homo sapiens, UniProt O60331); assay: KINOMEscan 1 μM, PIP5K1C; assay type: binding; conditions: 1000 nM; Entrez PIP5K1C; read-out: Percent Control
T26 construct: purchased Eurofins DiscoverX KINOMEscan
Source text: as §2

HCK = target: T27, HCK (Homo sapiens, UniProt P08631); assay: KINOMEscan 1 μM, HCK; assay type: binding; conditions: 1000 nM; Entrez HCK; read-out: Percent Control
T27 construct: purchased Eurofins DiscoverX KINOMEscan
Source text: as §2

JNK1 = target: T28, JNK1 (Homo sapiens, UniProt P45983); assay: KINOMEscan 1 μM, JNK1; assay type: binding; conditions: 1000 nM; Entrez MAPK8; read-out: Percent Control
T28 construct: purchased Eurofins DiscoverX KINOMEscan
Source text: as §2

NEK2 = target: T29, NEK2 (Homo sapiens, UniProt P51955); assay: KINOMEscan 1 μM, NEK2; assay type: binding; conditions: 1000 nM; Entrez NEK2; read-out: Percent Control
T29 construct: purchased Eurofins DiscoverX KINOMEscan
Source text: as §2

MST2 = target: T30, MST2 (Homo sapiens, UniProt Q13188); assay: KINOMEscan 1 μM, MST2; assay type: binding; conditions: 1000 nM; Entrez STK3; read-out: Percent Control
T30 construct: purchased Eurofins DiscoverX KINOMEscan
Source text: as §2

DCAMKL2 = target: T31, DCAMKL2 (Homo sapiens, UniProt Q8N568); assay: KINOMEscan 1 μM, DCAMKL2; assay type: binding; conditions: 1000 nM; Entrez DCLK2; read-out: Percent Control
T31 construct: purchased Eurofins DiscoverX KINOMEscan
Source text: as §2

RIPK2 = target: T32, RIPK2 (Homo sapiens, UniProt O43353); assay: KINOMEscan 1 μM, RIPK2; assay type: binding; conditions: 1000 nM; Entrez RIPK2; read-out: Percent Control
T32 construct: purchased Eurofins DiscoverX KINOMEscan
Source text: as §2

ACVRL1 = target: T33, ACVRL1 (Homo sapiens, UniProt P37023); assay: KINOMEscan 1 μM, ACVRL1; assay type: binding; conditions: 1000 nM; Entrez ACVRL1; read-out: Percent Control
T33 construct: purchased Eurofins DiscoverX KINOMEscan
Source text: as §2

ULK2 = target: T34, ULK2 (Homo sapiens, UniProt Q8IYT8); assay: DiscoverX KINOMEscan binding assay at 1 μM, ULK2; conditions: Compound Concentration 1000 nM, read-out: Percent Control
T34 construct: purchased Eurofins DiscoverX KINOMEscan
Source text: as §2

T28 sequence (P45983 whole entry): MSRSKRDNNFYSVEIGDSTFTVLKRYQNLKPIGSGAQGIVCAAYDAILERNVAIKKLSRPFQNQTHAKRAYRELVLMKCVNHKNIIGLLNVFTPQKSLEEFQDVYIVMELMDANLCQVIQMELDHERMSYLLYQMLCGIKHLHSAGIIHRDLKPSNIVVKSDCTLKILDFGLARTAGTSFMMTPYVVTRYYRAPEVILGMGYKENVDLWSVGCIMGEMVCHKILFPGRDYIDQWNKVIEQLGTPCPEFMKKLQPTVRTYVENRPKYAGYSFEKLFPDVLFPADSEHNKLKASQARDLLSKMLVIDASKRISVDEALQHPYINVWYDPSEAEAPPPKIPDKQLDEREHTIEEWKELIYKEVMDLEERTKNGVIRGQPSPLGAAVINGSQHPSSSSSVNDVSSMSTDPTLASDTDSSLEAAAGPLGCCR
T29 sequence (P51955 whole entry): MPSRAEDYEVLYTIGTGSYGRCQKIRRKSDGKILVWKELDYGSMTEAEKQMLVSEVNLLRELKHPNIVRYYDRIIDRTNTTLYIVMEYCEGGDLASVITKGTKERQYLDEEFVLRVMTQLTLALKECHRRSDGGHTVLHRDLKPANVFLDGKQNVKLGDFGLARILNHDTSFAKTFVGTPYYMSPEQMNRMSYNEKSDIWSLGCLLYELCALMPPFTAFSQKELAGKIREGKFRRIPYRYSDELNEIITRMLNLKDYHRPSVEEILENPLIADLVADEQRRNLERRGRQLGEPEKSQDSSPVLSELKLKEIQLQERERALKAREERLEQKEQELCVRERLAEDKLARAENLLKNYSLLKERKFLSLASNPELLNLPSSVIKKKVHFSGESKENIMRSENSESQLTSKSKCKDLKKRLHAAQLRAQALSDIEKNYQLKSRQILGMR
T6 sequence (Q9Y2H9 whole entry): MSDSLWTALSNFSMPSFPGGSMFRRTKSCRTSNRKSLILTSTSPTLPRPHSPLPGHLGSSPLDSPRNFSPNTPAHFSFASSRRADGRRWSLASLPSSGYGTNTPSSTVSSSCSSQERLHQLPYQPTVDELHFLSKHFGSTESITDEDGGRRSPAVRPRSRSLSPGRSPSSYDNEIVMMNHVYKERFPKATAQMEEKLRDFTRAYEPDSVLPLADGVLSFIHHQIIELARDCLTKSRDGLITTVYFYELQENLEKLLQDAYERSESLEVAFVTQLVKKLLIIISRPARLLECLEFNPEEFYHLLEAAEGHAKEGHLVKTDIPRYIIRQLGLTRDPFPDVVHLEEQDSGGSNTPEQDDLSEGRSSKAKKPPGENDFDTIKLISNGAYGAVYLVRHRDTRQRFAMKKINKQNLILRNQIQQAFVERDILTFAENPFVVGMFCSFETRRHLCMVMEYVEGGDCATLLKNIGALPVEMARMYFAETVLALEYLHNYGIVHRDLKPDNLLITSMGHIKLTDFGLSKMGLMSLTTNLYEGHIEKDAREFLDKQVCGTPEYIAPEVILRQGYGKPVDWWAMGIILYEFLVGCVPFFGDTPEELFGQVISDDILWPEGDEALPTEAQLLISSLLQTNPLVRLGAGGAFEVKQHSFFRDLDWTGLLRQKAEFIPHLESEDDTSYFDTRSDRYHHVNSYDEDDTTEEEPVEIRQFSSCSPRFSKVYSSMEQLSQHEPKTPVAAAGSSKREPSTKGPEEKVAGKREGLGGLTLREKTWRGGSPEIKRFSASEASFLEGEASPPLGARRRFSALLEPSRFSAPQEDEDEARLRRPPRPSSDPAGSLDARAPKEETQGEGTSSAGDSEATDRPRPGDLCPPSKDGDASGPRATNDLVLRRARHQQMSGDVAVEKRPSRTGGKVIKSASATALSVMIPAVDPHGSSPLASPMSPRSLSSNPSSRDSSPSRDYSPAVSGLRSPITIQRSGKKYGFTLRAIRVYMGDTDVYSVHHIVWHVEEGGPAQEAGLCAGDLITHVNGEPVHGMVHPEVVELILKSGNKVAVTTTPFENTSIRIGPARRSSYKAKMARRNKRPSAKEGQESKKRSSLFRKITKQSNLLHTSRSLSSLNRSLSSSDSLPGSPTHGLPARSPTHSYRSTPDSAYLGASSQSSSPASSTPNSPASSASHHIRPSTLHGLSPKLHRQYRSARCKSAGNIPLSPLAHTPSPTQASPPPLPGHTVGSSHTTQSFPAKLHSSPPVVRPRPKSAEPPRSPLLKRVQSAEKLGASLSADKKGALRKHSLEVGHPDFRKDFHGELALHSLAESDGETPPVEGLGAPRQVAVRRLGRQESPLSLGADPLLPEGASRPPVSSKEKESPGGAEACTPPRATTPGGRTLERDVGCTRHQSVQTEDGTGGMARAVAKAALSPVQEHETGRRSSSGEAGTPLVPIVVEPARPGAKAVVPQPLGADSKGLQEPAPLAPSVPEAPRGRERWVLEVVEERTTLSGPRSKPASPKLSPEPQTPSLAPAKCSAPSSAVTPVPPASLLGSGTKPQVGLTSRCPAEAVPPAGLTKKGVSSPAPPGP
T7 sequence (Q9UHD2 whole entry): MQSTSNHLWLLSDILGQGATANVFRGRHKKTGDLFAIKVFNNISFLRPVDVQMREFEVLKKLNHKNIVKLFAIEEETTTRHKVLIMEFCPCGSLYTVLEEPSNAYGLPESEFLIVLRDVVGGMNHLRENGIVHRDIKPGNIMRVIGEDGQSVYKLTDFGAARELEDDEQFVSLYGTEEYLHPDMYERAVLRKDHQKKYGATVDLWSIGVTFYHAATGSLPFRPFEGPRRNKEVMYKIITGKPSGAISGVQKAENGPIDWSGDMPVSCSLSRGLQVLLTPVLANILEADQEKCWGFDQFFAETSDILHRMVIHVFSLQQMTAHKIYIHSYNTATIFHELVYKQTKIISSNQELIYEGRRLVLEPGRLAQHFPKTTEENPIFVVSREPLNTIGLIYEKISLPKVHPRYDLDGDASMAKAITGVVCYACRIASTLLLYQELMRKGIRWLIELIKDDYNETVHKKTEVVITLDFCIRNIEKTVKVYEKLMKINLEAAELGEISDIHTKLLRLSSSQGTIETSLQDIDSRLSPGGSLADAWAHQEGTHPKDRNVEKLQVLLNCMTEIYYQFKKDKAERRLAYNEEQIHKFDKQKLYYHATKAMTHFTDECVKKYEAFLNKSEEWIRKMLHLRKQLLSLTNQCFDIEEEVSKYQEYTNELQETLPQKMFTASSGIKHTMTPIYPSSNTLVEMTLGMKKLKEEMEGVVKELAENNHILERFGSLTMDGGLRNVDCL
T30 sequence (Q13188 whole entry): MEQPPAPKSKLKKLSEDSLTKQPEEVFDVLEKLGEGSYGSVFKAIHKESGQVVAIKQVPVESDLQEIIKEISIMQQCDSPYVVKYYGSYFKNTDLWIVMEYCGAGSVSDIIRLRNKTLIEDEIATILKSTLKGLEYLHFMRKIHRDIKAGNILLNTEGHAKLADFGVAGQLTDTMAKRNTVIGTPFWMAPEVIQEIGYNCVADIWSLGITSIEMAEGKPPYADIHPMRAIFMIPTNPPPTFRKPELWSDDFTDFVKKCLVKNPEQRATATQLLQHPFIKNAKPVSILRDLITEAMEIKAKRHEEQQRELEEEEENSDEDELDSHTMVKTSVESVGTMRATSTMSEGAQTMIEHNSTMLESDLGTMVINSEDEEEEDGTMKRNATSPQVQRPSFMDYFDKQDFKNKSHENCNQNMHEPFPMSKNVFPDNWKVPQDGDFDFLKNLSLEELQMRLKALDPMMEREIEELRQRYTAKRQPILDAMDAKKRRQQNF
T13 sequence (Q06187 whole entry): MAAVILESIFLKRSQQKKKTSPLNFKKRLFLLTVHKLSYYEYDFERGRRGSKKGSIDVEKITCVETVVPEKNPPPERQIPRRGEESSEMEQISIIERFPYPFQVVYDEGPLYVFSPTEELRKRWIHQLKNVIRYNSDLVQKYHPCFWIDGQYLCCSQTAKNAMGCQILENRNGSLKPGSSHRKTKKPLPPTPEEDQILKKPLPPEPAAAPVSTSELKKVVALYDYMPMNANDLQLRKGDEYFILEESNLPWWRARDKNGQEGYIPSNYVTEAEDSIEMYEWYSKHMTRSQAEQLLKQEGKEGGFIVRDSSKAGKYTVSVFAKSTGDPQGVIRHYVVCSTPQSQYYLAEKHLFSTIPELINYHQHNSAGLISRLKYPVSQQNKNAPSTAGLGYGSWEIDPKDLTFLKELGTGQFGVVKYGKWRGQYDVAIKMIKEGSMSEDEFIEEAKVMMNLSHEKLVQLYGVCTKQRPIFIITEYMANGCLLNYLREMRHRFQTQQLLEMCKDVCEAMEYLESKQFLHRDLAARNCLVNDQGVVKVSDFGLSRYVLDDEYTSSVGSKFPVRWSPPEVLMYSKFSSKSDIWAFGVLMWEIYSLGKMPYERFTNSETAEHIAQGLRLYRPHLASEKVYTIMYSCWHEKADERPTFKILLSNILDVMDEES
T26 sequence (O60331 whole entry): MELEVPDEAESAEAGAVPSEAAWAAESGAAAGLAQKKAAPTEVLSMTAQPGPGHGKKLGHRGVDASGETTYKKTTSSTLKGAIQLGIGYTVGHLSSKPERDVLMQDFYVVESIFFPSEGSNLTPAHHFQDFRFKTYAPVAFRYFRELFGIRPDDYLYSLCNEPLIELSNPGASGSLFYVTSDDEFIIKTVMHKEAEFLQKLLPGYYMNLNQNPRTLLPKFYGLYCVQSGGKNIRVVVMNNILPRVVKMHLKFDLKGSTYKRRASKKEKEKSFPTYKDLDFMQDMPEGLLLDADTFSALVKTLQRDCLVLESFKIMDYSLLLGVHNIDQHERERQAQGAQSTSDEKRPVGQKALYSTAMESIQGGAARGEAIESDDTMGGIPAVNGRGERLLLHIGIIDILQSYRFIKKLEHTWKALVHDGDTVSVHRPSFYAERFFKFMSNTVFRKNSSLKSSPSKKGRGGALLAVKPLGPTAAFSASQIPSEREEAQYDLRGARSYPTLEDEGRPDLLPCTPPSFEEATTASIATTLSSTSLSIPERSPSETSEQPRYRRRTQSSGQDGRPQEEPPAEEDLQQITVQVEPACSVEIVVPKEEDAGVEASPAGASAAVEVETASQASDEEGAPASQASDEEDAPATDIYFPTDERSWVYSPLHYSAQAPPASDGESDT

## O=C(O)c1ccc(-c2coc3ncc(-c4ccccc4)cc23)cc1Cl [SGC-CAMKK2-1N (UNC-YL-83)]
PCTK1
  remaining binding at 1 µM: 83%
CDC2L2
  remaining binding at 1 µM: 100%
MAPKAPK5
  remaining binding at 1 µM: 100%
EPHA7
  remaining binding at 1 µM: 100%
MAP4K5
  remaining binding at 1 µM: 89%
MAST1
  remaining binding at 1 µM: 100%
EGFR(L747-T751del,Sins)
  Percent Control: 100%
TBK1
  remaining binding at 1 µM: 64%
[1]
  remaining binding at 1 µM: 88%
IRAK3
  remaining binding at 1 µM: 82%
TYRO3
  remaining binding at 1 µM: 100%
KIT(V559D,V654A)
  remaining binding at 1 µM: 92%
PDPK1
  remaining binding at 1 µM: 100%
BTK
  remaining binding at 1 µM: 60%
SGK
  remaining binding at 1 µM: 79%
LATS2
  remaining binding at 1 µM: 87%
YANK3
  remaining binding at 1 µM: 70%
DAPK2
  remaining binding at 1 µM: 70%
ERBB3
  remaining binding at 1 µM: 64%
ERBB4
  remaining binding at 1 µM: 83%
MAP3K2
  remaining binding at 1 µM: 83%
CAMK1G
  remaining binding at 1 µM: 86%

## Cc1cccc(-c2cnc3occ(-c4ccc(C(=O)O)c(C5CCCC5)c4)c3c2)c1 [SGC-CAMKK2-1 (YL-36)]
MST4
  remaining binding at 1 µM: 100%
AAK1
  remaining binding at 1 µM: 98%
GRK3
  remaining binding at 1 µM: 100%
CLK3
  remaining binding at 1 µM: 100%
PIP5K1C
  remaining binding at 1 µM: 99%
HCK
  remaining binding at 1 µM: 100%
JNK1
  remaining binding at 1 µM: 100%
NEK2
  remaining binding at 1 µM: 100%
MST2
  remaining binding at 1 µM: 95%
DCAMKL2
  remaining binding at 1 µM: 94%
RIPK2
  remaining binding at 1 µM: 55%
ACVRL1
  remaining binding at 1 µM: 100%
ULK2
  remaining binding at 1 µM: 100%
